Biological target: GLP-1 Receptor (Homo sapiens, UniProt P43220)
Experiment: GLP-1R agonist cAMP stimulation assay (HEK293/GLP1R/CRE-LUC cells, cAMP dynamic 2 Kit)
Assay type: cell-based
Conditions: HEK293/CRE-Luc cell line stably expressing the GLP-1 Receptor, 30 min at 37° C.
How it was run: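 HEK293 cells stably expressing human GLP-1R with CRE-luciferase, 1000 cells/well in DPBS with 0.5 mM IBMX and 0.1% BSA, treated with compound in 1/2-log serial dilution for 30 min at 37 °C. cAMP then detected by HTRF (cAMP-d2 plus anti-cAMP cryptate), 1 h at room temperature in the dark.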

GLP-1 Receptor, sequence (P43220 24-463, species assumed): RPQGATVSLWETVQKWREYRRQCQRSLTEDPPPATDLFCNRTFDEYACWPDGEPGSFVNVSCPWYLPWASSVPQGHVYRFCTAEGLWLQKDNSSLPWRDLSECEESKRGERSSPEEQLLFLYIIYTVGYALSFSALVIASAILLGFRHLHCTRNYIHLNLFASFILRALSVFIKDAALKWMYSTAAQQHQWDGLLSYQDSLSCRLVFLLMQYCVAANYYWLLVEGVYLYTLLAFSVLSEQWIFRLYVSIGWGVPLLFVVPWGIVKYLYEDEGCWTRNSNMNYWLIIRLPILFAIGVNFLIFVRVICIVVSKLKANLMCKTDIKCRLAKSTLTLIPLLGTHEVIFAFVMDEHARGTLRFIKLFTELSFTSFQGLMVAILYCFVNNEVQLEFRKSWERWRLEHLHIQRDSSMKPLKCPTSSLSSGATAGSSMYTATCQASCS

SMILES	EC50
O=C(Nc1ccc2c(c1)nc(CN1CCC(c3cccc(OCc4ccc(Cl)cc4F)n3)CC1)n2C[C@@H]1CCO1)C1CC(F)(F)C1 [Compound 152a, N-{2-[(4-{6-[(4-chloro-2-fluorophenyl)methoxy]pyridin-2-yl}piperidin-1-yl)methyl]-1-{[(2S)-oxetan-2-yl]methyl}-1H-1,3-benzodiazol-5-yl}-3,3-difluorocyclobutane-1-carboxamide]	880 pM
O=C(Nc1ccc2c(c1)nc(CN1CCC(c3cccc(OCc4ccc(Cl)cc4F)n3)CC1)n2C[C@@H]1CCO1)N1CCC(O)C1 (stereo partly drawn) [Compound 207a, N-{2-[(4-{6-[(4-chloro-2-fluorophenyl)methoxy]pyridin-2-yl}piperidin-1-yl)methyl]-1-{[(2S)-oxetan-2-yl]methyl}-1H-1,3-benzodiazol-5-yl}-3-hydroxypyrrolidine-1-carboxamide]	390 pM
FC(F)(F)c1nnc(-c2cnc3c(c2)nc(CN2CCC(c4cccc5c4OC[C@@H](c4ccc(Cl)cc4)O5)CC2)n3C[C@@H]2CCO2)[nH]1 [Compound 408a, 4-[(2R)-2-(4-chlorophenyl)-2,3-dihydro-1,4-benzodioxin-5-yl]-1-[(3-{[(2S)-oxetan-2-yl]methyl}-6-[5-(trifluoromethyl)-4H-1,2,4-triazol-3-yl]-3H-imidazo[4,5-b]pyridin-2-yl)methyl]piperidine]	280 pM
Fc1cc(Cl)ccc1COc1nc(C2CCN(Cc3nc4cc(-c5nnc(C(F)(F)F)[nH]5)nnc4n3C[C@@H]3CCO3)CC2)ncc1F [Compound 510a, 4-[(4-chloro-2-fluorophenyl)methoxy]-5-fluoro-2-{1-[(7-{[(2S)-oxetan-2-yl]methyl}-3-[5-(trifluoromethyl)-4H-1,2,4-triazol-3-yl]-7H-imidazo[4,5-c]pyridazin-6-yl)methyl]piperidin-4-yl}pyrimidine]	160 pM
CC1(c2ccc(Cl)cc2F)Oc2cccc(C3CCN(Cc4nc5cc(NC(=O)c6cccnc6)ccc5n4C[C@@H]4CCO4)CC3)c2O1 (stereo partly drawn) [Compound 235a, N-(2-((4-(2-(4-chloro-2-fluorophenyl)-2-methylbenzo[d][1,3]dioxol-4-yl)piperidin-1-yl)methyl)-1-(((S)-oxetan-2-yl)methyl)-1H-benzo[d]imidazol-5-yl)nicotinamide]	62 pM
C[C@]1(c2ccc(Cl)cc2F)Oc2cccc(C3CCN(Cc4nc5cc(-c6nnc(C7CC7)[nH]6)cnc5n4C[C@@H]4CCO4)CC3)c2O1 [Compound 282a, 4-[(2S)-2-(4-chloro-2-fluorophenyl)-2-methyl-2H-1,3-benzodioxol-4-yl]-1-{[6-(5-cyclopropyl-4H-1,2,4-triazol-3-yl)-3-{[(2S)-oxetan-2-yl]methyl}-3H-imidazo[4,5-b]pyridin-2-yl]methyl}piperidine]	450 pM
CC1(c2ccc(Cl)cc2)Oc2cccc(C3CCN(Cc4nc5cc(-c6nnc(C(F)(F)F)[nH]6)ccc5n4CC4(C#N)CC4)CC3)c2O1 (stereo not shown) [Compound 446, 1-{[2-({4-[2-(4-chlorophenyl)-2-methyl-2H-1,3-benzodioxol-4-yl]piperidin-1-yl}methyl)-5-[5-(trifluoromethyl)-4H-1,2,4-triazol-3-yl]-1H-1,3-benzodiazol-1-yl]methyl}cyclopropane-1-carbonitrile]	120 pM
C[C@]1(c2ccc(Cl)cc2F)Oc2cccc(C3CCN(Cc4nc5cc(-c6noc(=O)[nH]6)cnc5n4CC4(C#N)CC4)CC3)c2O1 [Compound 334a, 1-{[2-({4-[(2S)-2-(4-chloro-2-fluorophenyl)-2-methyl-2H-1,3-benzodioxol-4-yl]piperidin-1-yl}methyl)-6-(5-oxo-4,5-dihydro-1,2,4-oxadiazol-3-yl)-3H-imidazo[4,5-b]pyridin-3-yl]methyl}cyclopropane-1-carbonitrile]	250 pM
CC1(c2ccc(Cl)cc2F)Oc2cccc(C3CCN(Cc4nc5cc(-c6n[nH]c(=O)[nH]6)ccc5n4C[C@@H]4CCO4)CC3)c2O1 (stereo partly drawn) [Compound 355a, 3-[2-({4-[2-(4-chloro-2-fluorophenyl)-2-methyl-2H-1,3-benzodioxol-4-yl]piperidin-1-yl}methyl)-1-{[(2S)-oxetan-2-yl]methyl}-1H-1,3-benzodiazol-5-yl]-4,5-dihydro-1H-1,2,4-triazol-5-one]	7000 pM

Next, values leading:

EC50	SMILES
510 pM	N#Cc1ccc(COc2cc(C3CCN(Cc4nc5cc(-c6nnc(C(F)(F)F)[nH]6)nnc5n4C[C@@H]4CCO4)CC3)ccc2F)c(F)c1 [Compound 521a, 3-fluoro-4-[(2-fluoro-5-{1-[(7-{[(2S)-oxetan-2-yl]methyl}-3-[5-(trifluoromethyl)-4H-1,2,4-triazol-3-yl]-7H-imidazo[4,5-c]pyridazin-6-yl)methyl]piperidin-4-yl}phenoxy)methyl]benzonitrile]
880 pM	Cc1cc(C(=O)Nc2ccc3c(c2)nc(CN2CCC(c4cccc(OCc5ccc(Cl)cc5F)n4)CC2)n3C[C@@H]2CCO2)nn1C [Compound 187a, N-{2-[(4-{6-[(4-chloro-2-fluorophenyl)methoxy]pyridin-2-yl}piperidin-1-yl)methyl]-1-{[(2S)-oxetan-2-yl]methyl}-1H-1,3-benzodiazol-5-yl}-1,5-dimethyl-1H-pyrazole-3-carboxamide]
110 pM	O=c1[nH]c(-c2cnc3c(c2)nc(CN2CC=C(c4cccc(OCc5ccc(Cl)cc5F)n4)CC2)n3C[C@@H]2CCO2)no1 [Compound 324a, 3-[2-({6-[(4-chloro-2-fluorophenyl)methoxy]-1′,2′,3′,6′-tetrahydro-[2,4′-bipyridin]-1′-yl}methyl)-3-{[(2S)-oxetan-2-yl]methyl}-3H-imidazo[4,5-b]pyridin-6-yl]-4,5-dihydro-1,2,4-oxadiazol-5-one]
230 pM	CC1(c2ccc(Cl)cc2F)Oc2cccc(C3CCN(Cc4nc5cc(-c6nnc(C(F)(F)F)[nH]6)cnc5n4C[C@@H]4CCCO4)CC3)c2O1 (stereo partly drawn) [Compound 246a, 4-[2-(4-chloro-2-fluorophenyl)-2-methyl-2H-1,3-benzodioxol-4-yl]-1-[(3-{[(2S)-oxolan-2-yl]methyl}-6-[5-(trifluoromethyl)-4H-1,2,4-triazol-3-yl]-3H-imidazo[4,5-b]pyridin-2-yl)methyl]piperidine]
57 pM	Fc1cc(Cl)ccc1COc1nc(C2CCN(Cc3nc4cc(-c5nnc(C(F)(F)F)[nH]5)ncc4n3C[C@@H]3CCO3)CC2)ncc1F [Compound 491a, 4-[(4-chloro-2-fluorophenyl)methoxy]-5-fluoro-2-{1-[(3-{[(2S)-oxetan-2-yl]methyl}-6-[5-(trifluoromethyl)-4H-1,2,4-triazol-3-yl]-3H-imidazo[4,5-c]pyridin-2-yl)methyl]piperidin-4-yl}pyrimidine]
140 pM	Fc1cc(Cl)ccc1[C@H]1COc2cccc(C3CCN(Cc4nc5cc(-c6nnc(C(F)(F)F)[nH]6)nnc5n4C[C@@H]4CCO4)CC3)c2O1 [Compound 523a, 4-[(3S)-3-(4-chloro-2-fluorophenyl)-2,3-dihydro-1,4-benzodioxin-5-yl]-1-[(7-{[(2S)-oxetan-2-yl]methyl}-3-[5-(trifluoromethyl)-4H-1,2,4-triazol-3-yl]-7H-imidazo[4,5-c]pyridazin-6-yl)methyl]piperidine]
110 pM	N#Cc1ccc(COc2cc(C3CCN(Cc4nc5cc(-c6nnc(C(F)(F)F)[nH]6)ncc5n4C[C@@H]4CCO4)CC3)ccc2F)c(F)c1 [Compound 471a, 3-fluoro-4-[(2-fluoro-5-{1-[(3-{[(2S)-oxetan-2-yl]methyl}-6-[5-(trifluoromethyl)-4H-1,2,4-triazol-3-yl]-3H-imidazo[4,5-c]pyridin-2-yl)methyl]piperidin-4-yl}phenoxy)methyl]benzonitrile]

Reference: patent publication US20230391760A1, “HETEROCYCLIC GLP-1 AGONISTS” (Gasherbrum Bio, Inc., priority 2020, published 2023)
